Active and inactive are the calls of the source. The rule behind the calls is not given here.
Tests used:
[1] = Inhibition of recombinant Schistosoma manson carbonic anhydrase pre-incubated with enzyme for 15 mins by phenol red dye based stopped flow CO2 hydration assay; design: species or system Schistosoma mansoni
[2] = Selectivity ratio of Ki for inhibition of recombinant human carbonic anhydrase 2 to Ki for inhibition of recombinant Schistosoma manson carbonic anhydrase; assay type: toxicity
[3] = system: Schistosoma mansoni; test: Antischistosomal activity against Schistosoma mansoni Puerto-Rican infected in Swiss Webster mouse assessed as worm burden reduction at 50 mg/kg, ip administered at 42, 44 and 46 hrs post infection and measured after 2 weeks; assay type: functional, organism-based
[4] = system: Schistosoma mansoni; test: Antischistosomal activity against Schistosoma mansoni Puerto-Rican infected in Swiss Webster mouse assessed as worm burden reduction at 100 mg/kg, ip administered at 42, 44 and 46 hrs post infection and measured after 2 weeks; assay type: functional, organism-based

| Compound | Ki [1] | Ratio Ki [2] | Activity [3] | Activity [4] |
| --- | --- | --- | --- | --- |
| NS(=O)(=O)c1cccc(NC(=[Se])Nc2ccc(F)cc2)c1 | 91.4 nM | 4.2 | – | – |
| NS(=O)(=O)c1ccc(NC(=[Se])Nc2ccccc2F)cc1 | 5.7 nM | 1.1 | – | – |
| COc1ccccc1NC(=[Se])NCCc1ccc(S(N)(=O)=O)cc1 | 6.1 nM | 0.7 | – | – |
| NS(=O)(=O)c1ccc(NC(=[Se])Nc2ccccc2Cl)cc1 | 6.8 nM | 0.6 | – | – |
| CC(=O)Nc1nnc(S(N)(=O)=O)s1 [ACETAZOLAMIDE] | 42.5 nM | 0.3 | – | – |
| NS(=O)(=O)c1ccc(NC(=O)Nc2ccc(F)cc2)cc1 [SLC-0111] | 54.3 nM | 1.7 | inactive | – |
| NS(=O)(=O)c1cccc(NC(=[Se])Nc2ccccc2)c1 | 426 nM | 0.8 | – | – |
| NS(=O)(=O)c1ccc(CCNC(=[Se])Nc2ccc(Br)cc2)cc1 | 1.7 nM | 1.05 | – | – |
| NS(=O)(=O)c1ccc(CCNC(=[Se])Nc2ccc3ccccc3c2)cc1 | 84.9 nM | 1.1 | – | – |
| NS(=O)(=O)c1ccc(CCNC(=[Se])Nc2ccccc2)cc1 | 3.2 nM | 1.7 | – | – |
| NS(=O)(=O)c1ccc(NC(=[Se])Nc2ccccc2)cc1 | 83.7 nM | 0.6 | – | inactive |
| NS(=O)(=O)c1ccc(NC(=S)Nc2ccc(F)cc2)cc1 | 23.3 nM | 0.6 | – | – |
| NS(=O)(=O)c1ccc(CCNC(=[Se])Nc2ccccc2Cl)cc1 | 5.8 nM | 0.6 | – | inactive |
| NS(=O)(=O)c1ccc(CCNC(=[Se])Nc2ccccc2F)cc1 | 7.9 nM | 1 | – | – |
| NS(=O)(=O)c1ccc(CCNC(=S)Nc2ccc(I)cc2)cc1 | 37.6 nM | 0.2 | – | – |
| NS(=O)(=O)c1ccc(NC(=[Se])Nc2ccc(F)cc2)cc1 | 76.8 nM | 0.9 | – | – |
| NS(=O)(=O)c1ccc(CCNC(=[Se])Nc2ccc(I)cc2)cc1 | 4.7 nM | 12.2 | – | – |
| NS(=O)(=O)c1ccc(CCNC(=[Se])Nc2cccc(C(F)(F)F)c2)cc1 | 4.5 nM | 0.97 | – | – |
| NS(=O)(=O)c1ccc(CCNC(=O)Nc2ccc(I)cc2)cc1 | 13.3 nM | 0.6 | – | – |
| NS(=O)(=O)c1ccc(NC(=[Se])Nc2cccc(C(F)(F)F)c2)cc1 | 1.5 nM | 4.1 | – | – |
